The source of these data is patent publication US7485641B2, “Substituted 3-amino-pyrrolidino-4-lactams” (Pfizer, Inc., priority 2006, dated 2009).

The structures appear in SMILES notation. Where a name gives a salt, the structure may show the parent alone.

The target in this assay is T1, DPP-IV (Homo sapiens, UniProt P27487).
T1 construct: purchased Enzyme Systems Products SPE-01
Briefly: In vitro assay for dipeptidyl peptidase inhibition. The conditions noted are these: n-value given in brackets; for IC50: read-out: DPP-IV IC50; for inhibition at 0.3 µM: at 300 nM, read-out: DPP-IV Percent Inhibition at 300 nM. The format is biochemical.

T1 sequence (P27487 whole entry, species assumed): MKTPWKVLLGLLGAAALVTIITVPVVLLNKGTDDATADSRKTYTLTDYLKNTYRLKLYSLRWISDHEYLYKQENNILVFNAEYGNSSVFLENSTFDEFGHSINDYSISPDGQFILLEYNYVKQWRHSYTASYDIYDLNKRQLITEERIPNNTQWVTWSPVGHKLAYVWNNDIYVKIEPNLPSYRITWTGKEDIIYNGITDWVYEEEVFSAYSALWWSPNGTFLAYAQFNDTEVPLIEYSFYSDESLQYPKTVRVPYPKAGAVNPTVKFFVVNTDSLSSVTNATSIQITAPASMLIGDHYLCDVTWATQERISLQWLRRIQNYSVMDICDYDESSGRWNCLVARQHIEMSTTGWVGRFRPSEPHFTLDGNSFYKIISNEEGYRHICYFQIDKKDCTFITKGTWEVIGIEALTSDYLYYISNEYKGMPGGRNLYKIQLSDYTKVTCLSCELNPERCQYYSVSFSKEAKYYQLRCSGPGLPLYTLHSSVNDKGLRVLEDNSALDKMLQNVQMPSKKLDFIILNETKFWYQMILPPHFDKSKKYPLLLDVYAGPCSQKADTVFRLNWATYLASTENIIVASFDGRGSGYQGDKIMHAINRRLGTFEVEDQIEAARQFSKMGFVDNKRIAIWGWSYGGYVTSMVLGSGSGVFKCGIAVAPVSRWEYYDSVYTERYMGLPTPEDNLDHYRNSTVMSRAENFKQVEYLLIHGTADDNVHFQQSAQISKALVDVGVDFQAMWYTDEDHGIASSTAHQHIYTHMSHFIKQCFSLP

For `N[C@H]1CN(c2ncnc3ccc(Cl)cc23)C[C@@H]1N1CCCCC1=O` [Example 104, 1-[(3S,4S)-4-Amino-1-(6-chloro-quinazolin-4-yl)-pyrrolidin-3-yl]-piperidin-2-one hydrochloride], the IC50 was 132 nM.

As to `N[C@H]1CN(c2ncnc3cc(F)ccc23)C[C@@H]1N1CCCCC1=O` [Example 105, 1-((3S,4S)-4-Amino-1-(7-fluoroquinazolin-4-yl)pyrrolidin-3-yl)piperidin-2-one trifluoroacetate], the IC50 came out at 241 nM.

In the case of `COc1cc2ncnc(N3C[C@H](N)[C@@H](N4CCCCC4=O)C3)c2cc1Cl` [Example 106, 1-((3S,4S)-4-Amino-1-(6-chloro-7-methoxyquinazolin-4-yl)pyrrolidin-3-yl)piperidin-2-one trifluoroacetate], the IC50 was 99.6 nM.

With `COc1ccc2ncnc(N3C[C@H](N)[C@@H](N4CCCCC4=O)C3)c2c1` [Example 107, 1-((3S,4S)-4-amino-1-(6-methoxyquinazolin-4-yl)pyrrolidin-3-yl)piperidin-2-one], the inhibition at 0.3 µM was found to be 47%.

Take `COc1cccc2c(N3C[C@H](N)[C@@H](N4CCCCC4=O)C3)ncnc12` [Example 108, 1-((3S,4S)-4-Amino-1-(8-methoxyquinazolin-4-yl)pyrrolidin-3-yl)piperidin-2-one trifluoroacetate]: the IC50 stood at 175 nM.

In the case of `N[C@H]1CN(c2ncnc3c(F)cccc23)C[C@@H]1N1CCCCC1=O` [Example 109, 1-((3S,4S)-Amino-1-(8-fluoroquinazolin-4-yl)pyrrolidin-3-yl)piperidin-2-one trifluoroacetate], the IC50 came out at 110 nM.

Consider `N[C@H]1CN(c2ncnc3cc(C(F)(F)F)ccc23)C[C@@H]1N1CCCCC1=O` [Example 110, 1-((3S,4S)-4-amino-1-(7-(trifluoromethyl)quinazolin-4-yl)pyrrolidin-3-yl)piperidin-2-one], for which the IC50 was 47.2 nM.

For `N[C@H]1CN(c2ncnc3cc(C4CCCC4)ccc23)C[C@@H]1N1CCCCC1=O` [Example 111, 1-((3S,4S)-4-amino-1-(7-cyclopentylquinazolin-4-yl)pyrrolidin-3-yl)piperidin-2-one], the IC50 was 228 nM.

As to `N[C@H]1CN(c2ncnc3cc(Oc4ccccc4)ccc23)C[C@@H]1N1CCCCC1=O` [Example 113, 1-((3S,4S)-4-amino-1-(7-phenoxyquinazolin-4-yl)pyrrolidin-3-yl)piperidin-2-one], the IC50 was found to be 72.5 nM.

Regarding `N[C@H]1CN(c2ncnc3cc(OCc4ccccc4)ccc23)C[C@@H]1N1CCCCC1=O` [Example 114, 1-((3S,4S)-4-amino-1-(7-(benzyloxy)quinazolin-4-yl)pyrrolidin-3-yl)piperidin-2-one], the IC50 worked out at 109 nM.

Consider `CC(C)Oc1ccc2c(N3C[C@H](N)[C@@H](N4CCCCC4=O)C3)ncnc2c1` [Example 115, 1-((3S,4S)-4-amino-1-(7-isopropoxyquinazolin-4-yl)pyrrolidin-3-yl)piperidin-2-one], for which the IC50 worked out at 29.7 nM.

As to `CC(C)c1ccc2c(N3C[C@H](N)[C@@H](N4CCCCC4=O)C3)ncnc2c1` [Example 116, 1-((3S,4S)-4-amino-1-(7-isopropylquinazolin-4-yl)pyrrolidin-3-yl)piperidin-2-one], the concentration for half-maximal inhibition (IC50) came out at 55.9 nM.

Turning to `CCC(CC)c1ccc2c(N3C[C@H](N)[C@@H](N4CCCCC4=O)C3)ncnc2c1` [Example 117, 1-((3S,4S)-4-amino-1-(7-(pentan-3-yl)quinazolin-4-yl)pyrrolidin-3-yl)piperidin-2-one], the IC50 was determined as 206 nM.

Take `N#CCCc1ccc2c(N3C[C@H](N)[C@@H](N4CCCCC4=O)C3)ncnc2c1` [Example 118, 3-(4-((3S,4S)-3-amino-4-(2-oxopiperidin-1-yl)pyrrolidin-1-yl)quinazolin-7-yl)propanenitrile]: the half-inhibitory concentration (IC50) was 85.2 nM.

As for `N[C@H]1CN(c2ncnc3cc(OC4CCCC4)ccc23)C[C@@H]1N1CCCCC1=O` [Example 119, 1-((3S,4S)-4-amino-1-(7-(cyclopentyloxy)quinazolin-4-yl)pyrrolidin-3-yl)piperidin-2-one], the IC50 is 107 nM.

`N[C@H]1CN(c2ncnc3cc(Oc4cccc(F)c4)ccc23)C[C@@H]1N1CCCCC1=O` [Example 120, 1-((3S,4S)-4-amino-1-(7-(3-fluorophenoxy)quinazolin-4-yl)pyrrolidin-3-yl)piperidin-2-oneformate]: the 50% inhibitory concentration (IC50) stood at 79.8 nM.

`N#Cc1ccc(Oc2ccc3c(N4C[C@H](N)[C@@H](N5CCCCC5=O)C4)ncnc3c2)nc1` [Example 121, 6-(4-((3S,4S)-3-amino-4-(2-oxopiperidin-1-yl)pyrrolidin-1-yl)quinazolin-7-yloxy)nicotinonitrile]: the IC50 is 183 nM.

For the compound `N[C@H]1CN(c2ncnc3cc(OCC(F)(F)F)ccc23)C[C@@H]1N1CCCCC1=O` [Example 122, 1-((3S,4S)-4-amino-1-(7-(2,2,2-trifluoroethoxy)quinazolin-4-yl)pyrrolidin-3-yl)piperidin-2-one], the IC50 was 148 nM.

As for `N[C@H]1CN(c2ncnc3cc(O)ccc23)C[C@@H]1N1CCCCC1=O` [Example 123, 1-((3S,4S)-4-amino-1-(7-hydroxyquinazolin-4-yl)pyrrolidin-3-yl)piperidin-2-one trifluoroacetate], the half-inhibitory concentration (IC50) worked out at 113 nM.

Consider `N[C@H]1CN(c2ncnc3cc(OC(F)F)ccc23)C[C@@H]1N1CCCCC1=O` [Example 124, 1-((3S,4S)-4-amino-1-(7-(difluoromethoxy)quinazolin-4-yl)pyrrolidin-3-yl)piperidin-2-one], for which the concentration for half-maximal inhibition (IC50) was found to be 33.2 nM.

As for `N[C@H]1CN(c2ncnc3cc(OC4CCC4)ccc23)C[C@@H]1N1CCCCC1=O` [Example 125, 1-((3S,4S)-4-amino-1-(7-cyclobutoxyquinazolin-4-yl)pyrrolidin-3-yl)piperidin-2-one], the IC50 is 101 nM.

As for `CC(C)(O)c1ccc2c(N3C[C@H](N)[C@@H](N4CCCCC4=O)C3)ncnc2c1` [Example 126, 1-((3S,4S)-4-amino-1-(7-(2-hydroxypropan-2-yl)quinazolin-4-yl)pyrrolidin-3-yl)piperidin-2-one], the IC50 turned out to be 66.8 nM.

For the compound `N[C@H]1CN(c2ncnc3cc(Oc4ccc(C(F)(F)F)cn4)ccc23)C[C@@H]1N1CCCCC1=O` [Example 127, 1-((3S,4S)-4-amino-1-(7-(5-(trifluoromethyl)pyridin-2-yloxy)quinazolin-4-yl)pyrrolidin-3-yl)piperidin-2-one], the half-maximal inhibitory concentration (IC50) came out at 137 nM.

As to `N[C@H]1CN(c2ncnc3cc(Oc4ccc(F)cc4)ccc23)C[C@@H]1N1CCCCC1=O` [Example 128, 1-((3S,4S)-4-amino-1-(7-(4-fluorophenoxy)quinazolin-4-yl)pyrrolidin-3-yl)piperidin-2-one], the concentration for half-maximal inhibition (IC50) is 222 nM.

Consider `COc1ccc(Oc2ccc3c(N4C[C@H](N)[C@@H](N5CCCCC5=O)C4)ncnc3c2)cc1` [Example 129, 1-((3S,4S)-4-amino-1-(7-(4-methoxyphenoxy)quinazolin-4-yl)pyrrolidin-3-yl)piperidin-2-one], for which the IC50 worked out at 61.5 nM.

As for `N[C@H]1CN(c2ncnc3cc(Sc4cccc(F)c4)ccc23)C[C@@H]1N1CCCCC1=O` [Example 130, 1-((3S,4S)-4-amino-1-(7-(3-fluorophenylthio)quinazolin-4-yl)pyrrolidin-3-yl)piperidin-2-oneformate], the IC50 is 60.5 nM.

As for `N[C@H]1CN(c2ncnc3cc(Oc4ccc(OC(F)(F)F)cc4)ccc23)C[C@@H]1N1CCCCC1=O` [Example 131, 1-((3S,4S)-4-amino-1-(7-(4-(trifluoromethoxy)phenoxy)quinazolin-4-yl)pyrrolidin-3-yl)piperidin-2-oneformate], the IC50 came out at 189 nM.

Take `CSc1ccc(Sc2ccc3c(N4C[C@H](N)[C@@H](N5CCCCC5=O)C4)ncnc3c2)cc1` [Example 132]: the IC50 was 720 nM.

Take `N[C@H]1CN(c2ncnc3cc(Oc4ccc(OC(F)(F)F)cc4)ccc23)C[C@@H]1N1CCCCC1=O` [Example 133, 1-((3S,4S)-4-amino-1-(7-(4-(trifluoromethoxy)phenoxy)quinazolin-4-yl)pyrrolidin-3-yl)piperidin-2-one]: the IC50 was 200 nM.

Regarding `CCS(=O)(=O)Oc1ccc2c(N3C[C@H](N)[C@@H](N4CCCCC4=O)C3)ncnc2c1` [Example 134, 4-((3S,4S)-3-amino-4-(2-oxopiperidin-1-yl)pyrrolidin-1-yl)quinazolin-7-yl ethanesulfonate], the half-inhibitory concentration (IC50) was found to be 218 nM.

As for `CS(=O)(=O)Oc1ccc2c(N3C[C@H](N)[C@@H](N4CCCCC4=O)C3)ncnc2c1` [Example 135, 4-((3S,4S)-3-amino-4-(2-oxopiperidin-1-yl)pyrrolidin-1-yl)quinazolin-7-yl methanesulfonate], the half-inhibitory concentration (IC50) came out at 128 nM.

On to `CC(C)S(=O)(=O)Oc1ccc2c(N3C[C@H](N)[C@@H](N4CCCCC4=O)C3)ncnc2c1` [Example 136, 4-((3S,4S)-3-amino-4-(2-oxopiperidin-1-yl)pyrrolidin-1-yl)quinazolin-7-yl propane-2-sulfonate], for which the IC50 came to 135 nM.

`CC(C)Sc1ccc2c(N3C[C@H](N)[C@@H](N4CCCCC4=O)C3)ncnc2c1` [Example 137, 1-((3S,4S)-4-amino-1-(7-(isopropylthio)quinazolin-4-yl)pyrrolidin-3-yl)piperidin-2-one]: the half-inhibitory concentration (IC50) is 116 nM.

In the case of `CC(C)S(=O)(=O)c1ccc2c(N3C[C@H](N)[C@@H](N4CCCCC4=O)C3)ncnc2c1` [Example 138, 1-((3S,4S)-4-amino-1-(7-(isopropylsulfonyl)quinazolin-4-yl)pyrrolidin-3-yl)piperidin-2-one trifluoroacetate], the inhibition at 0.3 µM worked out at 24.1%.

Regarding `CCS(=O)(=O)c1ccc2c(N3C[C@H](N)[C@@H](N4CCCCC4=O)C3)ncnc2c1` [Example 139, 1-((3S,4S)-4-amino-1-(7-(ethylsulfonyl)quinazolin-4-yl)pyrrolidin-3-yl)piperidin-2-one], the inhibition at 0.3 µM is 33.5%.

For `CCSc1ccc2c(N3C[C@H](N)[C@@H](N4CCCCC4=O)C3)ncnc2c1` [Example 140, 1-((3S,4S)-4-amino-1-(7-(ethylthio)quinazolin-4-yl)pyrrolidin-3-yl)piperidin-2-one], the half-maximal inhibitory concentration (IC50) was determined as 55 nM.

By IC50 is commonly meant the concentration that inhibits the measured activity by half. In general, inhibition refers to the drop in the measured response relative to a control, in per cent.
